Experimental data taken from paper PMC11219871, “Epigenetic-based differentiation therapy for Acute Myeloid Leukemia” (Nature Communications, 2024).
Several values for one entry are separate records, joined by “and”; a condition that tells them apart may be missing. Equal entries are not always repeated. Where two headings read alike, the source gives them in different places.

Experiments:
[1] = Liver microsomal stability; format: in vitro ADME; details: read-out: Liver Microsomal Stability Estimation T1/2
Procedure: This study was conducted at Wuxi (http://www.wuxi.com/). […] A 5-μL aliquot of stock solution of test compound (10 mM; 100% DMSO) was diluted in 495 μL of […] (final concentration of 100 μM, 99% MeOH). Then, 50 μL of this intermediate solution was diluted in 450 μL of 100 mM potassium phosphate buffer to a concentration of 10 μM (working solution, 9.9% MeOH). The β-nicotinamide adenine dinucleotide phosphate reduced form (NADPH) regenerating system also contained tetrasodium salt, NADPH•4Na (Sigma, Cat.# No.00616). Human liver microsomes were obtained from Corning (Cat.#452117), and C57 mouse liver microsomes from Xenotech (Cat.#M5000), at a final concentration of 0.5 mg protein/mL. A volume of 10 μL of working solution of test and control compounds (testosterone, diclofenac and propafenone) and 80 μL/well microsome solution were added to a 96-well plate and incubated for 10 min at 37 °C. The reaction was started by the addition of 10 μL of NADPH regenerating system and stopped by the addition of 300 μL of stop solution (acetonitrile at 4 °C, including 100 ng/mL tolbutamide and 100 ng/mL of labetalol as internal standard) at different incubation times (0, 5, 10, 20, 30, and 60 min). Then, the samples were shaken for 10 min and centrifuged at 1699 g for 20 min at 4 °C. An aliquot of supernatant (100 μL) was transferred from each well and mixed with 300 μL of ultra-pure water before submitting to LC-MS/MS analysis. Concentrations of test and control compounds were quantified by LC-MS/MS using a peak area ratio of analyte/internal standard, and the percent loss of the parent compound was calculated at each time point to determine the half-life (t1/2, min). Experiments were performed in duplicate.

CACO-2 permeability = format: in vitro ADME; details: human
Procedure: This study was conducted at Wuxi (http://www.wuxi.com/). Caco-2 cells (ATCC) were seeded onto polyethylene membranes in 96-well BD insert plates at 1 × 10^5 cells/cm^2, and the medium was changed every 4 days until the 21st to 28th day for confluent cell monolayer formation. Test compounds were diluted with transport buffer (HBSS with 10 mM HEPES at pH 7.4 ± 0.05) to a concentration of 2 µM (final DMSO concentration adjusted to <1%) and tested bi-directionally to investigate P-glycoprotein-mediated efflux in duplicate. Controls: digoxin (10 μM, bi-directionally), nanodolol and metoprolol (2 μM, apical, A, to basolateral, B). The permeation was assessed over a 120-minute incubation at 37 °C ± 1 °C and 5% CO2 at saturated humidity without shaking. Samples were mixed with acetonitrile containing internal standard and centrifuged at 1520 g for 10 min. Then, 100-μL aliquots of supernatant solutions were diluted with 100 μL of pure water. Concentrations of test and control compounds in starting solution, donor solution, and receiver solution were quantified by LC-MS/MS using a peak area ratio of analyte to internal standard. Permeation of lucifer yellow through the monolayer was measured to evaluate the cellular integrity. The results are the average of two biological replicates.

[2] = test system: LINE-1 DNA methylation in MOLM-13; assay: LINE-1 pyrosequencing; format: cell-based, human
Procedure: (§1) DNA methylation of the repetitive element LINE-1 was analyzed using a pyrosequencing technique. […] Cells were washed twice with PBS, and then genomic DNA was extracted using a DNA Kit (Nucleo Spin Tissue, Cat No 74095250, Macherey-Nagel) following the manufacturer's instructions. DNA purity and concentration were measured using a NanoDrop spectrophotometer (Thermo Scientific). A 1 μg amount of genomic DNA was treated and modified using a CpGenome DNA modification Kit (Cat No S7820, Chemicon International) following the manufacturer's instructions. […] [NT]) in a final volume of 25 μL. The resulting biotinylated PCR products were immobilized to Streptavidin Sepharose ® High-Performance beads (GE Healthcare) and processed to yield high-quality ssDNA using the PyroMark Vacuum Prep Workstation (Biotage) according to the manufacturer's instructions. The pyrosequencing reactions were performed using the PyromarkTM ID (Biotage), and sequence analysis was performed using the PyroQ-CpG analysis software (Biotage).

[3] = test system: LINE-1 DNA methylation in ML-2; assay: LINE-1 pyrosequencing; format: cell-based, human
Procedure: as §1

[4] = test system: LINE-1 DNA methylation in HL-60; assay: LINE-1 pyrosequencing; format: cell-based, human
Procedure: as §1

[5] = test system: LINE-1 DNA methylation in MV4-11; assay: LINE-1 pyrosequencing; format: cell-based, human
Procedure: as §1

## COc1cc2nc(-c3cc(C)oc3C)cc(NCC3CCN(c4ncc(C(=O)NO)cn4)CC3)c2cc1OC [CM-1758, 2-[4-[[[2-(2,5-dimethyl-3-furyl)-6,7-dimethoxy-4-quinolyl]amino]methyl] -1-piperidyl]pyrimidine-5-carbohydroxamic acid]
[1]; C57, mouse liver microsomes
  half-life at 1 µM: 12.5 min
[1]; human liver microsomes
  half-life at 1 µM: 37.9 min
CACO-2 permeability; Caco-2, pH 7.4
  efflux ratio at 120 min, 2 µM: > 1050
CACO-2 permeability; Caco-2, pH 7.4, A to B
  Papp A→B at 120 min, 2 µM: < 0.01 ×10⁻⁶ cm/s
[2]; MOLM-13, 48 hours
  LINE-1 methylation (%) CG Position 1: 99% and 97%
  LINE-1 methylation (%) CG Position 2: 85% and 81%
  LINE-1 methylation (%) CG Position 3: 100% and 96%
  LINE-1 methylation (%) CG Position 4: 100%
  LINE-1 methylation (%) CG Position 5: 70% and 82%
[2]; MOLM-13, 5 days
  LINE-1 methylation (%) CG Position 1: 69% and 59%
  LINE-1 methylation (%) CG Position 2: 63% and 69%
  LINE-1 methylation (%) CG Position 3: 78% and 80%
  LINE-1 methylation (%) CG Position 4: 83% and 87%
  LINE-1 methylation (%) CG Position 5: 58% and 54%
[3]; ML-2, 48 hours
  LINE-1 methylation (%) CG Position 1: 70% and 68%
  LINE-1 methylation (%) CG Position 2: 72% and 74%
  LINE-1 methylation (%) CG Position 3: 78% and 80%
  LINE-1 methylation (%) CG Position 4: 85% and 89%
  LINE-1 methylation (%) CG Position 5: 59% and 61%
[3]; ML-2, 10 days
  LINE-1 methylation (%) CG Position 1: 60%
  LINE-1 methylation (%) CG Position 2: 54% and 50%
  LINE-1 methylation (%) CG Position 3: 61% and 63%
  LINE-1 methylation (%) CG Position 4: 73% and 65%
  LINE-1 methylation (%) CG Position 5: 43% and 39%
[4]; HL-60, 48 h
  LINE-1 methylation (%) CG Position 1 Replicate 1: 100%
  LINE-1 methylation (%) CG Position 1 Replicate 2: 100%
  LINE-1 methylation (%) CG Position 2 Replicate 1: 86%
  LINE-1 methylation (%) CG Position 2 Replicate 2: 82%
  LINE-1 methylation (%) CG Position 3 Replicate 1: 100%
  LINE-1 methylation (%) CG Position 3 Replicate 2: 100%
  LINE-1 methylation (%) CG Position 4 Replicate 1: 100%
  LINE-1 methylation (%) CG Position 4 Replicate 2: 100%
  LINE-1 methylation (%) CG Position 5 Replicate 1: 79%
  LINE-1 methylation (%) CG Position 5 Replicate 2: 83%
[4]; HL-60, 10 days
  LINE-1 methylation (%) CG Position 1: 76% and 78%
  LINE-1 methylation (%) CG Position 2: 61% and 65%
  LINE-1 methylation (%) CG Position 3: 77% and 85%
  LINE-1 methylation (%) CG Position 4: 87% and 93%
  LINE-1 methylation (%) CG Position 5: 57% and 55%
[5]; MV4-11, 48 hours
  LINE-1 methylation (%) CG Position 1: 85%
  LINE-1 methylation (%) CG Position 2: 80% and 74%
  LINE-1 methylation (%) CG Position 3: 87%
  LINE-1 methylation (%) CG Position 4: 95% and 97%
  LINE-1 methylation (%) CG Position 5: 69% and 65%
[5]; MV4-11, 5 days
  LINE-1 methylation (%) CG Position 1: 79% and 75%
  LINE-1 methylation (%) CG Position 2: 77% and 79%
  LINE-1 methylation (%) CG Position 3: 82% and 84%
  LINE-1 methylation (%) CG Position 4: 92% and 86%
  LINE-1 methylation (%) CG Position 5: 66% and 60%
